{"source": "patent US6451787B1", "about": "“Remedies for ocular diseases” (Cephalon, Inc., priority 1998, dated 2002)", "key": {"[1]": {"system": "retinal disturbance induced by injecting kainic acid into the hyaloid body", "test": "Effects on the retina from the eye treated with kainic acid", "assay_type": "in vivo, rat", "details": "for Thickness of the inner plexiform layer: injected two days before, at the same time as and one day after kainic acid, Normal 47.5, Control 20.8; for Thickness of the inner plexiform layer / Number of the cells in the layer of gangliocyte: 7 days after; for Number of the cells in the layer of gangliocyte: Normal 64.2, Control 36.8", "protocol": "2. Effects on the Retina From the Eye Treated with Kainic Acid\nIt has been reported that when kainic acid, that is a neurotoxin, is injected into the hyaloid body, the inner plexiform layer becomes thinner because of synaptic collapse caused by cell death of amacrine cell or the number of the cells contained in the layer of gangliocyte decreases because of apoptosis happening to those cells (Neurochem. Int., 31, 251-260 (1997)).\nThen, according to the method described in this reference, the effects of the compound on the retinal disturbance induced by injecting kainic acid into the hyaloid body were studied.\nTo a male Sprague—Dawley rat (180-250 g) under anesthesia with pentobarbital, a solution of kainic acid in polyethylene glycol 660 hydroxystearate (1 mmol/L) was injected into the hyaloid bodies in both of the eyes in the amount of 5 μl under observation with a stereoscopic microscopy. […]. These sections were stained with hematoxylin—eosin and photographs were taken for the sections in which the retinal part at the distance of approximately 1 mm from the optic disc to either direction, left or right, is included to measure the thickness of the inner plexiform layer and the number of the cells contained in the layer of gangliocyte.\nThe compound was dissolved into polyethylene glycol 660 hydroxystearate and then injected into the hyaloid bodies two days before, at the same time as and one day after the kainic acid treatment in the volume of 5 μl each."}, "[2]": {"system": "retinal gangliocyte in a retinal ischemia—reperfusion model", "test": "Effects on the retina subjected to the ischemia—reperfusion treatment", "assay_type": "in vivo, rat", "excerpt": "1. Effects on the Retina Subjected to the Ischemia—Reperfusion Treatment\nIt has been reported that brain-derived neurotrophic factor (it is referred to as BDNF hereinafter) which is a neurotrophic factor has a protective effect against gangliocytic death caused by retinal ischemia (Invest. Ophthalmol. Vis. Sci. 35, 907-915 (1994)).\nThus, according to the method described in this reference, the effects of the compounds on retinal gangliocyte in a retinal ischemia—reperfusion model were studied.\nUnder anesthesia with a mixture of Ketalar and Celactal, the conjunctiva of a male Spraugue—Dawley rat (300-450 g) was dissected to expose the optic nerve and then the retina was subjected to an ischemic state by ligating the optic nerve with a suture. Sixty minutes after the ischemia, the suture was taken out to reperfuse the retina with the blood by allowing the circulation. Seven days after the reperfusion, the eye bulb was enucleated and then immobilized with paraformaldehyde, and after embedding it in paraffin, the transverse paraffin sections of the eye bulb with 3 μm of the thickness were prepared by slicing the eye bulb beginning from the point of exposure of the optic nerve with 60 μm of each interval. These sections were stained with hematoxylin—eosin and photographs were taken for the section in which the retinal part at the distance of approximately 1 mm from the optic disc to either direction, left or right, is included to measure the number of the cells contained in the layer of gangliocyte.\nHere, the compound was dissolved into polyethylene glycol 660 hydroxystearate and injected in the volume of 1 μl into the hyaloid body two day before the creation of the ischemic state."}}}
{"molecule": "CCSCc1ccc2c(c1)c1c3c(c4c5cc(CSCC)ccc5n5c4c1n2[C@H]1C[C@](O)(C(=O)OC)[C@]5(C)O1)CNC3=O", "note": "[Compound A]", "values": [{"measurement": "Number of the cells in the layer of gangliocyte recovered to the level of that for Normal group (2)", "setting": "[1]; 3 μg injected, kainic acid treatment", "value": 80.7, "unit": "%"}, {"measurement": "Thickness of the inner plexiform layer", "setting": "[1]; 3 μg/eye", "value": 28.8, "unit": "μm"}, {"measurement": "Number of the cells in the layer of gangliocyte", "setting": "[1]; 3 μg/eye, kainic acid treatment", "value": 51.8, "unit": "cells/mm"}, {"measurement": "Thickness of the inner plexiform layer", "setting": "[1]; 30 μg/eye [sic]", "value": 23.8, "unit": "μm"}, {"measurement": "Number of the cells in the layer of gangliocyte", "setting": "[1]; 30 μg/eye [sic], kainic acid treatment", "value": 42.3, "unit": "cells/mm"}, {"measurement": "Protective effect against neurocyte disturbance of the retina caused by the kainic acid treatment", "setting": "[1]; conclusion in words", "value": "superior protective effect"}, {"measurement": "Number of the cells in the layer of gangliocyte recovered to the level of that for Normal Group (1)", "setting": "[2]; 3 μg injected, ischemia—reperfusion treatment", "value": 70.9, "unit": "%"}, {"measurement": "Number of the cells in the layer of gangliocyte", "setting": "[2]; 3 μg/eye injected into the hyaloid body two days before 60 min ischemia, 7 days after reperfusion, Normal Group 38.8, Control Group 20.5", "value": 27.5, "unit": "cells/mm"}, {"measurement": "Protective effect on neurocyte disturbance of the retina caused by the ischemia—reperfusion treatment", "setting": "[2]; conclusion in words", "value": "superior protective effect"}]}
